Drawing on paper PMC12177760, “In Silico Discovery of a Novel Antiviral Scaffold for SARS-CoV‑2 Targeting the Spike Glycoprotein through the Fatty Acid Binding Pocket” (ACS Omega, 2025), this text covers EC50 and inhibition for one compound.

The test relates to SARS-CoV-2 Delta variant in Vero E6 cells. In words: microbe, parasite or virus in culture. In kind it is cell-based.

pEC50: −log10 of the molar value.

As to `CC(c1ccc(-n2cncn2)cc1)N(C)C(=O)CCC(=O)N1CCC(c2ccccc2)=N1` (centres unmarked) [compound 36], the pEC50 (Severe acute respiratory syndrome coronavirus 2, Vero C1008, read-out: EC50 (inhibition of Delta variant-induced CPE)) is 5.24. In addition, the inhibition at 33 µM (Severe acute respiratory syndrome coronavirus 2, Vero C1008, 33 μM, read-out: maximum inhibition of CPE) is 78%.
